ChEMBL document CHEMBL1201862, “PubChem BioAssay data set” (2004)
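A five-concentration, 48-hour dose response in 96-well plates underlies each endpoint, interpolated linearly between surrounding concentrations. At the GI50, growth is halved.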 Active and inactive are the calls of the source. No stated cut-off is given here; in the data, active = GI50 up to about 1.1 µM and inactive = higher.

Tests used:
Assay in all cases: NCI tumour cell line growth inhibition, 48 h
PC-3 = tested on: PC-3
Hs-578T = tested on: Hs-578T
786-0 = tested on: 786-0
MDA-MB-231 = tested on: MDA-MB-231
BT-549 = tested on: BT-549
MDA-MB-435 = tested on: MDA-MB-435
LXFL 529 = tested on: LXFL 529
RXF 631 = tested on: RXF 631
M19-MEL = tested on: M19-MEL

| SMILES | GI50 (PC-3) | GI50 (Hs-578T) | GI50 (786-0) | GI50 (MDA-MB-231) | GI50 (BT-549) | GI50 (MDA-MB-435) | GI50 (LXFL 529) | GI50 (RXF 631) | GI50 (M19-MEL) |
| --- | --- | --- | --- | --- | --- | --- | --- | --- | --- |
| Cc1cccc(C)c1NC(=O)Nc1ccc(S(N)(=O)=O)cc1 | > 100 µM (inactive) | > 100 µM (inactive) | > 100 µM (inactive) | > 100 µM (inactive) | > 100 µM (inactive) | > 100 µM (inactive) | – | – | – |
| CCOC(=O)C(=O)NC12CC3CC(CC(C3)C1)C2 | – | – | – | – | – | – | > 100 µM (inactive) | > 100 µM (inactive) | – |
| c1ccc(OCc2nnc(CCCCCCCCc3nnc(COc4ccccc4)o3)o2)cc1 | > 100 µM (inactive) | – | 47.5 µM (inactive) | 47.6 µM (inactive) | > 100 µM (inactive) | > 100 µM (inactive) | – | – | – |
| CN1C(=O)CC(=O)N1/C(=C/c1ccccc1)c1ccccc1 | 32 µM (inactive) | 28.2 µM (inactive) | – | 12.6 µM (inactive) | > 100 µM (inactive) | 66.8 µM (inactive) | – | – | – |
| CN(C)CCNC(=O)c1cc(Cl)cc2cc3ccccc3nc12 | – | – | – | – | – | – | – | – | 1.3 µM (inactive) |
| Cc1ccc2c3c1[C@@H]1O[C@@H]1c1cccc(c1-3)[C@@H]1O[C@H]21 | 15 µM (inactive) | 21.3 µM (inactive) | – | 18 µM (inactive) | 17.9 µM (inactive) | 14.1 µM (inactive) | – | – | – |
| CCOC(=O)/C=C/c1c[nH]c(C(=O)OCC)c1 | – | – | – | – | – | – | – | – | > 100 µM (inactive) |
| O=C(OCc1ccccc1)OOC(=O)OCc1ccccc1 | – | – | – | – | – | – | > 100 µM (inactive) | – | > 100 µM (inactive) |
| C=C1C[C@@H](O)C[C@@]2(C)C[C@@H]3OC(=O)C(=C)[C@@H]3C[C@H]12 | – | – | – | – | – | – | – | – | 20.4 µM (inactive) |
| COC(=O)C1C(O)C(C)C(O)C(C)(O)/C=C\C=C(C)C(=O)Nc2c(C)c(OC(C)=O)c3c(c2O)C(=O)C(C)=C2OCOC(=C23)C(C)=CC(C)(O)C(O)C(C)C1OC(C)=O (stereo unspecified) | – | – | – | – | – | – | – | – | 17.3 µM (inactive) |
| COC(=O)C(Cc1ccc(N(C)C)cc1)(NC(=O)c1ccccc1)P(=O)(OC)OC (stereo unspecified) | – | – | – | – | – | – | > 100 µM (inactive) | – | > 100 µM (inactive) |
| N/N=C(\C(=O)Nc1c(Cl)cc([N+](=O)[O-])cc1Cl)C(c1cnc2ccc([N+](=O)[O-])cc2n1)[N+](=O)[O-] (stereo unspecified) | – | – | – | – | – | – | – | – | > 100 µM (inactive) |
| CN(C)C(=O)C(F)(F)C(c1ccc(Br)cc1)C1C(=O)N(C)C(=O)N(C)C1=O (stereo unspecified) | > 100 µM (inactive) | – | > 100 µM (inactive) | > 100 µM (inactive) | > 100 µM (inactive) | > 100 µM (inactive) | – | – | – |
| O=C1C=C/C(=C/[C@H]2SSC=C[C@]23C=CC(=O)C3)C1 | 24.7 µM (inactive) | 10.8 µM (inactive) | 7.55 µM (inactive) | 28.1 µM (inactive) | 18.9 µM (inactive) | 17.7 µM (inactive) | – | – | – |
| COc1ccc(/C=C2\C[C@H]3[C@@H]4CCC5=C/C(=N/O)CC[C@]5(C)[C@H]4CC[C@]3(C)\C2=N\O)cc1OC | 10.7 µM (inactive) | > 100 µM (inactive) | 17.8 µM (inactive) | – | 57.8 µM (inactive) | 18.8 µM (inactive) | – | – | – |
| CCOC(=O)C1=NN(c2ccc(Cl)cc2)C2=CC(C)=NN(C)C(=S)N21 | > 100 µM (inactive) | 27.5 µM (inactive) | – | 44.5 µM (inactive) | – | > 100 µM (inactive) | – | – | – |
| CC(=C(c1ccccc1)c1ccccc1)N1C(=O)CC(=O)N1C | 21.9 µM (inactive) | 20.3 µM (inactive) | – | – | 34.8 µM (inactive) | 41.1 µM (inactive) | – | – | – |
| COc1c2c(cc3c(CCc4ccccc4)cc(=O)oc13)CCC(C)(C)O2 | – | – | – | – | – | – | > 100 µM (inactive) | – | > 100 µM (inactive) |
| Cc1ccnc2nc(N)ccc12 | > 100 µM (inactive) | > 100 µM (inactive) | > 100 µM (inactive) | > 100 µM (inactive) | > 100 µM (inactive) | > 100 µM (inactive) | – | – | – |
| C=CCc1cccc2cc(C(=O)Nc3ccc(C)cc3)c(=N)oc12 | > 100 µM (inactive) | > 100 µM (inactive) | > 100 µM (inactive) | > 100 µM (inactive) | > 100 µM (inactive) | > 100 µM (inactive) | – | – | – |

| SMILES | GI50 (PC-3) | GI50 (Hs-578T) | GI50 (786-0) | GI50 (MDA-MB-231) | GI50 (BT-549) | GI50 (MDA-MB-435) | GI50 (LXFL 529) | GI50 (RXF 631) | GI50 (M19-MEL) |
| --- | --- | --- | --- | --- | --- | --- | --- | --- | --- |
| COc1ccc(/C(Cl)=C(\C=O)c2ccc(F)cc2)cc1 | – | – | – | – | – | – | 6.27 µM (inactive) | 19.8 µM (inactive) | 15 µM (inactive) |
| CCCCCCSc1nc(N)nc2nc[nH]c12 | – | – | – | – | – | – | – | – | 47.1 µM (inactive) |
| CC(=O)OCC1OC(Nc2ncc(-c3ccc(C)cc3)s2)C(OC(C)=O)C(OC(C)=O)C1OC(C)=O (stereo unspecified) | – | – | – | – | – | – | – | – | 18.8 µM (inactive) |
| CN(C)CCOc1cc2c(c3ccccc13)-c1ccccc1C2=O | – | – | – | – | – | – | – | – | 1.35 µM (inactive) |
| C[Si](C)(C)/C(I)=C/CO | – | – | 37.3 µM (inactive) | – | – | – | 34.6 µM (inactive) | 26.4 µM (inactive) | 20.8 µM (inactive) |
| O=C1C2C3C=C4c5ccccc5N(c5ccccc5)C4(C2C(=O)N1Cc1ccccc1)C1C(=O)N(Cc2ccccc2)C(=O)C31 (stereo unspecified) | – | – | > 100 µM (inactive) | – | – | – | > 100 µM (inactive) | > 100 µM (inactive) | 70.3 µM (inactive) |
| CCOC(=O)C1(C(F)(F)F)N=C(CC)OC(N2CCOCC2)=N1 (stereo unspecified) | > 100 µM (inactive) | > 100 µM (inactive) | – | > 100 µM (inactive) | > 100 µM (inactive) | > 100 µM (inactive) | – | – | – |
| C[n+]1[se]c2ccccc2c1Cl | – | – | > 45 µM (inactive) | – | – | – | 28.1 µM (inactive) | 25.1 µM (inactive) | 10.3 µM (inactive) |
| O=S1(=O)CC#CC[C@@H](CO)[C@@H](CO)CC#CC1 | – | – | > 100 µM (inactive) | – | – | – | 71.3 µM (inactive) | – | 47.1 µM (inactive) |
| CN(C1=NCCO1)c1cccc2ccccc12 | > 10 µM (inactive) | > 10 µM (inactive) | – | > 10 µM (inactive) | – | > 10 µM (inactive) | – | – | – |
| O=C(O)C(O)Cc1ccccn1 (stereo unspecified) | > 100 µM (inactive) | > 100 µM (inactive) | – | > 100 µM (inactive) | > 100 µM (inactive) | > 100 µM (inactive) | – | – | – |
| Cc1cc(O)c2c(c1O)C(=O)C13C(=C(O)C4C(O)C1C1C(O)C3C(O)=C3C(=O)c5c(O)cc(C)c(O)c5C(=O)C341)C2=O (stereo unspecified) | – | – | – | – | – | – | – | – | 0.0545 µM (active) |
| O=C(O)C(F)(F)C(F)(F)C(F)(F)C(F)(F)C(F)(F)C(F)(F)C(F)(F)C(F)(F)F | 42.1 µM (inactive) | 29.9 µM (inactive) | 83.9 µM (inactive) | 46.2 µM (inactive) | 49.1 µM (inactive) | 48.3 µM (inactive) | – | – | – |
| COC(=O)C(/C(=N/NC(N)=S)C(=O)Nc1ccccc1[N+](=O)[O-])c1cnc2ccccc2n1 (stereo unspecified) | – | – | > 100 µM (inactive) | – | – | – | > 100 µM (inactive) | > 100 µM (inactive) | > 100 µM (inactive) |
| Cc1cc(=O)nc(S(=O)(=O)NC(=S)Nc2ccc(Cl)cc2)[nH]1 | > 100 µM (inactive) | > 100 µM (inactive) | > 100 µM (inactive) | > 100 µM (inactive) | > 100 µM (inactive) | > 100 µM (inactive) | – | – | – |
| CC12CCC(=O)[C@@]1(C)CCCC2O (stereo partly specified) | > 100 µM (inactive) | > 100 µM (inactive) | > 100 µM (inactive) | > 100 µM (inactive) | > 100 µM (inactive) | – | – | – | – |
| C[S+](C)CC1OC(n2cnc3c(N)ncnc32)C(O)C1O (stereo unspecified) | – | – | – | – | – | – | – | – | > 179 µM (inactive) |
| O=C(O)c1ccc(C(=O)O)c2c(C(=O)O)ccc(C(=O)O)c12 | > 100 µM (inactive) | > 100 µM (inactive) | > 100 µM (inactive) | > 100 µM (inactive) | – | > 100 µM (inactive) | – | – | – |
| CC=C/C=C/[C@@H]1O[C@](O)([C@H](CC)C(=O)NC/C=C/C=C(\C)[C@@H](OC)[C@@H](C)[C@@H]2O[C@H](/C=C/C=C/C=C(\C)C(=O)c3c(O)cc[nH]c3=O)[C@H](O)[C@@H]2O)[C@H](O)[C@H](O)C1(C)C | > 100 µM (inactive) | 43.4 µM (inactive) | – | – | – | > 100 µM (inactive) | – | – | – |
